Experimental data taken from patent US12465588B2, “Indole carboxamide derivative and pharmaceutical composition containing same” (KUKJE PHARMA CO., LTD., priority 2019, dated 2025).
Marks after values point to notes of the source that are not given here. Values belong to the compound of their own block, whether it stands above or below them.

Experiments:
[1] = tested on: guinea pig model of osteoarthritis induced by MIA (monosodium iodoacetate); assay: Hind limb incapacitance test in guinea pig model of osteoarthritis induced by MIA; assay type: in vivo; conditions: for weight-bearing ratios, course in words: over 4 weeks of oral administration after MIA
Experimental: An experiment was conducted as follows in order to evaluate the efficacy of the compound according to the present invention for osteoarthritis-induced guinea pigs.
(§1) Specifically, male guinea pigs weighing about 500 g±20% from Coretech Co., Ltd. (Gyeonggi-do, Korea) were acclimated in a laboratory for 8 days, and provided chow and water ad libitum. Temperature (23±3° C.), humidity (55±15%) and light/dark cycle (12 hours, 08:00˜20:00) were controlled automatically.
(§2) Each group consisted of 10 guinea pigs. Guinea pigs were anesthetized with Zoletil 50 (VIRBAC, France, 5 mg/kg) and xylazine (Rompun®, Bayer AG, Germany, 2.5 mg/kg) and depilated at the area around the right knee with Clipper. Using a C-arm (ARCADIS Varic, SIEMENS Co.), it was confirmed that a syringe equipped with a 26 gauge needle was located in the joint cavity. 50 μL of MIA at a concentration of 60 mg/mL was administered into the joint cavity. One week after MIA administration, Compound 9 of the present invention was added to excipients (DMSO (10% by weight), Tween 80 (30% by weight), HMPC (same amount as the drug)), dissolved in water so that the total amount was 100% by weight, and orally administered to the prepared experimental animals at 10 mg/kg and 25 mg/kg, respectively. In the positive control group, GRC27864 was orally administered at 12.5 mg/kg using the same excipient, and only the excipient was orally administered to the control group. The drug was administered for 4 weeks.
(§3) The hind limb incapacitance test was performed for the behavioral evaluation weekly for 4 weeks and the inflammatory factor evaluation was performed by measuring PGE2, IL-1β, and TNF-α in blood after 4 weeks.
The hind limb weight-bearing ratios were obtained by setting up the animals at an inclination of 60 degrees in a plastic room using an incapacitance meter tester, measuring the intensity applied to each hind limb over 10 seconds, and calculating an average. Weight-bearing ratios are 50% for normal cases and up to early 30% for the cases in which a disease is induced.

[2] = tested on: acetic acid-induced abdominal contraction mouse model; assay: Anti-pain efficacy test, acetic acid-induced abdominal contraction mouse model; assay type: in vivo; conditions: oral, 1 hour before 0.7% acetic acid i.p.; writhing counted for 10 minutes (FIG. 5)
Experimental: In order to evaluate the anti-pain efficacy of the compound according to the present invention in abdominal contraction mice, an experiment was conducted as follows.
Specifically, male ICR mice weighing about 20 to 25 g from Orient Bio Co., Ltd. (Gyeonggi-do, Korea) were acclimated in a laboratory for 7 days and provided chow and water ad libitum. Temperature (20±2° C.), humidity (40±60%) and light/dark cycle (12 hours) were controlled automatically.
Based on 10 mice per group, the control group was orally administered with an excipient (200 μL), and the positive control group was orally administered with celecoxib at 25 mg/kg. Compound 9 of the present invention was dissolved in an excipient (10% NMP (N-methyl-2-pyrrolidone), 10% ethanol, 80% polyethylene glycol 400) and administered orally at 10 and 50 mg/kg to each mouse. One hour after drug administration, 0.7% acetic acid was intraperitoneally injected at […] to induce pain. The number of writhing was measured for 10 minutes from 10 minutes after the acetic acid administration.
In this experiment, the less the number of writhing for 10 minutes, the stronger the anti-pain efficacy of the drug was evaluated. The statistical significance compared to the control group was represented as **P<0.01, *P<0.05 compared to the control group.

[3] = tested on: A549 human lung cancer cells; assay: Measurement of PGE2 in IL-1β-treated A549 human lung cancer cells; assay type: cell-based; conditions: PGE2 production, A549 cell, IL-1β 1 ng/mL, 48 hours
Experimental: Samples at various concentrations were added at 24 hours after A549 human lung cancer cells were seeded. After 1 hour, IL-1β of 1 ng/mL was added. The cells were cultured for 48 hours and then the culture supernatant was collected. PGE2 of the collected supernatant was measured according to the manufacturer's instructions using a PGE2 EIA kit.

[4] = tested on: PGE2, IL-1β, and TNF-α in blood; assay: Inflammatory factor evaluation (ELISA) in blood of MIA osteoarthritis guinea pigs; assay type: in vivo, guinea pig; conditions: for IL-1β (ELISA analysis) / PGE2 (ELISA analysis) / TNF-α (ELISA analysis): blood, after 4 weeks
Experimental: as §1, §2, §3
The concentrations of PGE2, IL-1β, and TNF-α in blood were measured using commercially available ELISA kit after 4 weeks. The results are shown in Table 4 below and FIGS. 2 to 4. ***, ** and * represent statistical significance compared to the control group, and are P<0.001, P<0.01, and P<0.05 compared to the control group.

IC50 [3]: 7.16 nM
SMILES: CC(C)C(=O)NCc1ccc(Cl)c(C(=O)Nc2ccc3c(c2)cc(C(=O)Nc2ccc(OC(F)(F)F)cc2)n3C)c1 [Compound 9, 5-(2-chloro-5-(isobutyramidomethyl)benzamido)-1-methyl-N-(4-(trifluoromethoxy)phenyl)-1H-indole-2-carboxamide]
Weight-bearing ratio ([1]; 10 mpk oral, day 0): 42.05 ± 2.99%
Weight-bearing ratio ([1]; 10 mpk oral, day 7): 39.64 ± 5.30%
Weight-bearing ratio ([1]; 10 mpk oral, day 14): 39.53 ± 6.41%
Weight-bearing ratio ([1]; 10 mpk oral, day 21): 40.16 ± 2.92%
Weight-bearing ratio ([1]; 10 mpk oral, day 28): 38.42 ± 1.52%
Weight-bearing ratio ([1]; 25 mpk oral, day 0): 39.15 ± 4.53%
Weight-bearing ratio ([1]; 25 mpk oral, day 7): 42.39 ± 3.69%
Weight-bearing ratio ([1]; 25 mpk oral, day 14): 40.65 ± 3.61%
Weight-bearing ratio ([1]; 25 mpk oral, day 21): 39.19 ± 3.15%
Weight-bearing ratio ([1]; 25 mpk oral, day 28): 39.28 ± 4.14%
weight-bearing ratios, course in words [1]: did not worsen after MIA administration but were maintained
number of writhing compared to the control group [2]: significantly lower number of writhing compared to the control group
inhibitory ability on inflammatory factors, in words ([4]; 25 mpk, compared with GRC27864 group): inhibited the inflammatory factor more than the group administered with the drug GRC27864
IL-1β (ELISA analysis) ([4]; 10 mpk oral): 41.547 ± 10.683
PGE2 (ELISA analysis) ([4]; 10 mpk oral): 9331.6 ± 2215.6
TNF-α (ELISA analysis) ([4]; 10 mpk oral): 119.715 ± 22.898
IL-1β (ELISA analysis) ([4]; 25 mpk oral): 34.345 ± 11.786
PGE2 (ELISA analysis) ([4]; 25 mpk oral): 5812.4 ± 1758.8***
TNF-α (ELISA analysis) ([4]; 25 mpk oral): 94.833 ± 22.453**

IC50 [3]: 1.8 nM
SMILES: CC(C)C(=O)NCc1ccc(Cl)c(C(=O)Nc2ccc3c(c2)cc(C(=O)N[C@@H](C)c2ccc(Br)cc2)n3CC(F)(F)F)c1 [Compound 67, (S)—N-(1-(4-bromophenyl)ethyl)-5-(2-chloro-5-(isobutyramidomethyl)benzamido)-1-(2,2,2-trifluoroethyl)-1H-indole-2-carboxamide]

IC50 [3]: 8.52 nM
SMILES: CC(C)C(=O)NCc1ccc(Cl)c(C(=O)Nc2ccc3c(c2)cc(C(=O)NCc2ccc(F)cc2)n3CC(F)(F)F)c1 [Compound 68, 5-(2-chloro-5-(isobutyramidomethyl)benzamido)-N-(4-fluorobenzyl)-1-(2,2,2-trifluoroethyl)-1H-indole-2-carboxamide]

IC50 [3]: 47 nM
SMILES: CC(C)C(=O)NCc1ccc(Cl)c(C(=O)Nc2ccc3c(c2)cc(C(=O)NCc2cc(F)cc(C(F)(F)F)c2)n3CC(F)(F)F)c1 [Compound 69, 5-(2-chloro-5-(isobutyramidomethyl)benzamido)-N-(3-fluoro-5-(trifluoromethyl)benzyl)-1-(2,2,2-trifluoroethyl)-1H-indole-2-carboxamide]

IC50 [3]: 9.65 nM
SMILES: CC(C)C(=O)NCc1ccc(Cl)c(C(=O)Nc2ccc3c(c2)cc(C(=O)NCc2cccc(C(F)(F)F)c2)n3CC(F)(F)F)c1 [Compound 70, 5-(2-chloro-5-(isobutyramidomethyl)benzamido)-1-(2,2,2-trifluoroethyl)-N-(3-(trifluoromethyl)benzyl)-1H-indole-2-carboxamide]

IC50 [3]: 20.1 nM
SMILES: CC(C)C(=O)NCc1ccc(Cl)c(C(=O)Nc2ccc3c(c2)cc(C(=O)NCc2ccc(Cl)c(F)c2)n3CC(F)(F)F)c1 [Compound 71, N-(4-chloro-3-fluorobenzyl)-5-(2-chloro-5-(isobutyramidomethyl)benzamido)-1-(2,2,2-trifluoroethyl)-1H-indole-2-carboxamide]

IC50 [3]: 9.38 nM
SMILES: CC(C)C(=O)NCc1ccc(Cl)c(C(=O)Nc2ccc3c(c2)cc(C(=O)NCc2ccc(OC(F)(F)F)cc2)n3CC(F)(F)F)c1 [Compound 72, 5-(2-chloro-5-(isobutyramidomethyl)benzamido)-1-(2,2,2-trifluoroethyl)-N-(4-(trifluoromethoxy)Benzyl)-1H-indole-2-carboxamide]

IC50 [3]: 72.3 nM
SMILES: CC(C)C(=O)NCc1ccc(Cl)c(CNc2ccc3c(c2)cc(C(=O)Nc2ccc(OC(F)(F)F)cc2)n3C)c1 [Compound 73, 5-((2-chloro-5-(isobutyramidomethyl)benzyl)amino)-1-methyl-N-(4-(trifluoromethoxy)phenyl)-1H-indole-2-carboxamide]

IC50 [3]: 5.87 nM
SMILES: CC(C)C(=O)NCc1ccc(Cl)c(C(=O)Nc2ccc3[nH]c(C(=O)Nc4ccc(OC(F)(F)F)cc4)cc3c2)c1 [Compound 74, 5-(2-chloro-5-(isobutyramidomethyl)benzamido)-N-(4-(trifluoromethoxy)phenyl)-1H-indole-2-carboxamide]

IC50 [3]: 6.49 nM
SMILES: CC(C)C(=O)NCc1ccc(Cl)c(C(=O)Nc2ccc3[nH]c(C(=O)Nc4ccc(C(F)(F)F)cc4)cc3c2)c1 [Compound 75, 5-(2-chloro-5-(isobutyramidomethyl)benzamido)-N-(4-(trifluoromethyl)phenyl)-1H-indole-2-carboxamide]

IC50 [3]: 3.21 nM
SMILES: CC(C)C(=O)NCc1ccc(Cl)c(-c2nc3cc(-c4ccc(C(F)(F)F)cc4)ncc3c(=O)[nH]2)c1 [GRC27864, reference compound]
Weight-bearing ratio ([1]; GRC27864 12.5 mg/kg oral, day 0): 40.84 ± 2.68%
Weight-bearing ratio ([1]; GRC27864 12.5 mg/kg oral, day 7): 43.66 ± 4.51%
Weight-bearing ratio ([1]; GRC27864 12.5 mg/kg oral, day 14): 39.85 ± 3.29%
Weight-bearing ratio ([1]; GRC27864 12.5 mg/kg oral, day 21): 37.35 ± 4.43%
Weight-bearing ratio ([1]; GRC27864 12.5 mg/kg oral, day 28): 40.92 ± 3.85%
weight-bearing ratios, course in words [1]: did not worsen after MIA administration but were maintained
IL-1β (ELISA analysis) ([4]; 12.5 mpk oral): 37.408 ± 9.109
PGE2 (ELISA analysis) ([4]; 12.5 mpk oral): 7756.9 ± 1860.5**
TNF-α (ELISA analysis) ([4]; 12.5 mpk oral): 97.110 ± 20.595*

SMILES: Cc1ccc(-c2cc(C(F)(F)F)nn2-c2ccc(S(N)(=O)=O)cc2)cc1 [celecoxib, reference compound]
number of writhing compared to the control group [2]: significantly lower number of writhing compared to the control group
